In patent US20080311589A1, “METHOD OF HIGH-THROUGHPUT SCREENING OF MOLECULES AND COMPOUNDS FOR THEIR EFFECTS ON BIOLOGICAL AND CHEMICAL PROCESSES” (priority 1999, published 2008):
“Also recorded” adds a separate entry of the source.

Target: T1, conventional kinesin (Homo sapiens, UniProt P33176)
T1 sequence (P33176 1-963): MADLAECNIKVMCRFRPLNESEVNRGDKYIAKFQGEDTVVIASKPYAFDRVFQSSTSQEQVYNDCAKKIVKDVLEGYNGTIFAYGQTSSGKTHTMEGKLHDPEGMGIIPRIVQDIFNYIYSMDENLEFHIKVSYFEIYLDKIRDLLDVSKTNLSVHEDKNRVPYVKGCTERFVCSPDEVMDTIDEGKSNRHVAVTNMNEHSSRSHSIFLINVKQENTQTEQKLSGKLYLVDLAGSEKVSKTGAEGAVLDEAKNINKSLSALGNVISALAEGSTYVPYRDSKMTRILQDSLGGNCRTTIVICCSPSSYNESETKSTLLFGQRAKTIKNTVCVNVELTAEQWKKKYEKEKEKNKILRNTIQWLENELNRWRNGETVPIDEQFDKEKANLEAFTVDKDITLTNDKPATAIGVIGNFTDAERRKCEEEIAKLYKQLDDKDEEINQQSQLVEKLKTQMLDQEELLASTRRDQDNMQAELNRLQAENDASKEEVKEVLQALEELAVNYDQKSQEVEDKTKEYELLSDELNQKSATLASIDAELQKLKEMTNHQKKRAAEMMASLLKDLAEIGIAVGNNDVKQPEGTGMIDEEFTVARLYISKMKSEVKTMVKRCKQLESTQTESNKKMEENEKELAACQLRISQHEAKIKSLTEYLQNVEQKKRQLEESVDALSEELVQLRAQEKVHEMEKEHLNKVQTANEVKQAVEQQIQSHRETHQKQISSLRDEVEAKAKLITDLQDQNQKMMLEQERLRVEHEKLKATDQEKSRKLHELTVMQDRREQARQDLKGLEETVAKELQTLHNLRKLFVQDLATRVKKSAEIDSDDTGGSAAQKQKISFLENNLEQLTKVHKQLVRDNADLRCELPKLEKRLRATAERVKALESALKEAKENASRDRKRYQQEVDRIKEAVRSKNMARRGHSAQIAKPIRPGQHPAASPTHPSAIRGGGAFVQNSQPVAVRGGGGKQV
Experiment: microtubule gliding driven by conventional kinesin
Assay type: biochemical
Details: 200 μM
Method: FIG. 26. […] Conventional kinesin motility was not inhibited in the same assay. A. Model for spindle bipolarity. Plus-end directed motors, such as Eg5 are thought to be involved in the separation of the centrosomes and the establishment of a symmetric spindle axis. B. Inhibition of the kinesin Eg5 results in monastrol spindles. Microtubules, green; chromosomes, blue. Eg5 is depicted as homotetramer (9). C. […] After imaging Eg5 driven microtubule gliding in the presence of monastrol (200 μM), the same assay chamber was depleted of compound and the microtubule gliding recorded (Washout). […] D. Chemical structures of monastrol and DHP2.
Eg5 is a member of the kinesin superfamily, which includes over 100 homologous proteins involved in organelle transport, membrane organization, and assembly and maintenance of mitotic spindles (Vale et al., Annu. Rev. Cell. Dev. Biol. 13:745, 1997). To test whether monastrol affects other motor proteins, we first assayed its ability to inhibit microtubule gliding driven by conventional kinesin in vitro. The N-terminal motor domain of conventional kinesin shares 33% sequence identity with the Eg5 motor domain (Kapoor et al., Proc. Natl. Acad. Sci. USA, 1999). […] We next investigated whether monastrol disturbs the distribution of lysosomes or the Golgi apparatus in vivo. […]

In the case of monastrol, the “inhibition of microtubule gliding driven by conventional kinesin” value is reported as “no inhibition; also recorded: does not inhibit”.
